Test results: patent publication US20170274014A1, “COMBINATIONS OF LOW, IMMUNE ENHANCING, DOSES OF MTOR INHIBITORS AND CARS” (Novartis AG, priority 2014, published 2017)
“And” between values parts separate entries of the source, which are not always exact repeats. Equal values may be shown once. Read-outs that look alike come from different tables or passages of the source.

Legend:
[1] = system: A/H1N1/California/07/2009 influenza; assay: Anti-A/H1N1/California/07/2009 influenza IgG and IgM levels in serum before and after vaccination; format: in vivo, human; conditions: all p values >0.05 by Kruskal-Wallis rank sum test
Method: FIGS. 4A and 4B are graphic representations of IgG and IgM levels before and after influenza vaccination. Levels of anti-A/H1N1/California/07/2009 influenza IgG and IgM were measured in serum obtained from subjects before and 4 weeks post influenza vaccination.

[2] = system: H1N1 A/California/07/2009; assay: Hemagglutination inhibition titers after seasonal influenza vaccination, A/H1N1 vaccine strain; format: in vivo, human; conditions: for HI GMT A/H1N1, Baseline: 2 weeks prior to influenza vaccination; for HI GMT A/H1N1, Week 4: 4 weeks after influenza vaccination
Method: (§1) The trial was observer-blind because the placebo in the RAD001 0.5 mg daily and 20 mg weekly cohorts differed slightly from the RAD001 tablets in those cohorts. […] The treatment duration for all cohorts was 6 weeks during which time subjects underwent safety evaluations in the clinic every 2 weeks. After subjects had been dosed for 4 weeks, RAD001 steady state levels were measured pre-dose and at one hour post dose. After completing the 6 week course of study drug, subjects were given a 2 week drug free break to reverse any possible RAD001-induced immunosuppression, and then were given a 2012 seasonal influenza vaccination (Agrippal®, Novartis Vaccines and Diagnostics, Siena, Italy) containing the strains H1N1 A/California/07/2009, H3N2 A/Victoria/210/2009, B/Brisbane/60/2008. Four weeks after influenza vaccination, subjects had serum collected for influenza titer measurements. Antibody titers to the 3 influenza vaccine strains as well as to 2 heterologous strains (A/H1N1 strain A/New Jersey/8/76 and A/H3N2 strain A/Victoria/361/11) were measured by standard hemagglutination inhibition assay (Kendal, A P et al. (1982) Concepts and procedures for laboratory-based influenza surveillance. Atlanta: Centers for Disease Control and Prevention B17-B35). Levels of IgG and IgM specific for the A/H1N1/California/07/2009 were measured in serum samples taken before and 4 weeks after influenza vaccination as described previously (Spensieri, F. et al. (2013) Proc. Natl. Acad. Sci. USA 110:14330-14335). Results were expressed as fluorescence intensity.
(§2) The primary analysis of geometric mean titer ratios was done using a normal Bayesian regression model with non-informative priors. This model was fitted to each antibody titer on the log scale. The primary outcome in each model was the Day 84 measurement. The Day 63 measurement was included in the outcome vector. The model fitted using SAS 9.2 proc mixed with the prior statement. The covariance structure of the matrix was considered as unstructured (option type=UN). A flat prior was used. For the secondary analysis of seroconversion rates, logistic regression was used.
(§3) The ability of RAD001 to improve immune function in elderly volunteers was evaluated by measuring the serologic response to the 2012 seasonal influenza vaccine. The hemagglutination inhibition (HI) geometric mean titers (GMT) to each of the 3 influenza vaccine strains at baseline and 4 weeks after influenza vaccination are provided in Table 6. The primary analysis variable was the HI GMT ratio (4 weeks post vaccination/baseline).
(§4) Rates of seroconversion 4 weeks after influenza vaccination were also evaluated. Seroconversion was defined as the change from a negative pre-vaccination titer (i.e., HI titer <1:10) to post-vaccination HI titer ≧1:40 or at least 4-fold increase from a non-negative (≧1:10) pre-vaccination HI titer.

[3] = system: H3N2 A/Victoria/210/2009; assay: Hemagglutination inhibition titers after seasonal influenza vaccination, A/H3N2 vaccine strain; format: in vivo, human; conditions: for HI GMT A/H3N2, Baseline: 2 weeks prior to influenza vaccination; for HI GMT A/H3N2, Week 4: 4 weeks after influenza vaccination
Method: as §1, §2, §3, §4

[4] = system: A/H1N1 strain A/New Jersey/8/76; format: in vivo, human
[5] = system: 3 influenza vaccine strains; parameters: species or system human; conditions: in vivo
[6] = system: PD-1 positive CD4 and CD8 T cells; parameters: species or system human; conditions: in vivo
[7] = system: huCAR19 CAR T cells; assay: CAR T cell expansion in vivo in NSG mice with NALM6-luc tumors (FACS); conditions: lowest doses of RAD001, daily oral; more evident and prolonged with CD4+ than CD8+ CAR T cells
[8] = human, in vivo
[9] = system: pneumococcal serotypes; conditions: all 3 RAD cohorts; 7 of 23 serotypes measured
[10] = system: CAR-expressing, transduced T cells; assay: CART co-culture with NALM6 cells in presence of RAD001; conditions: low doses of RAD001, 4 days
[11] = elderly subjects
[12] = Intention to Treat Population, 0.5 mg, N = 48
[13] = Intention to Treat Population, 5 mg, N = 49
[14] = Intention to Treat Population, 20 mg, N = 48
[15] = Subjects with Baseline Titers <=40, 0.5 mg
[16] = Subjects with Baseline Titers <=40, 5 mg
[17] = Subjects with Baseline Titers <=40, 20 mg

CO[C@H]1C[C@@H]2CC[C@@H](C)[C@@](O)(O2)C(=O)C(=O)N2CCCC[C@H]2C(=O)O[C@H]([C@H](C)C[C@@H]2CC[C@@H](OCCO)[C@H](OC)C2)CC(=O)[C@H](C)/C=C(\C)[C@@H](O)[C@@H](OC)C(=O)[C@H](C)C[C@H](C)/C=C/C=C/C=C/1C [RAD001, (1R,9S,12S,15R,16E,18R,19R,21R,23S,24E,26E,28E,30S,32S,35R)-1,18-dihydroxy-12-{(1R)-2-[(1S,3R,4R)-4-(2-hydroxyethoxy)-3-methoxycyclohexyl]-1-methylethyl}-19,30-dimethoxy-15,17,21,23,29,35-hexamethyl-11,36-dioxa-4-aza-tricyclo[30.3.1.04,9]hexatriaconta-16,24,26,28-tetraene-2,3,10,14,20-pentaone]
change from baseline to 4 weeks post vaccination in anti-H1N1 influenza IgG and IgM levels, RAD001 versus placebo cohorts [1]: No significant difference | HI GMT ratio A/H1N1 (week 4 post vaccination/baseline) ([2]; 0.5 mg daily, N = 50): 2.6 | HI GMT A/H1N1, Baseline ([2]; 0.5 mg daily, N = 50): 102.8 | HI GMT A/H1N1, Week 4 ([2]; 0.5 mg daily, N = 50): 190.2 | HI GMT ratio A/H1N1 (week 4 post vaccination/baseline) ([2]; 5 mg weekly, N = 49): 2.5 | HI GMT A/H1N1, Baseline ([2]; 5 mg weekly, N = 49): 84.2 | HI GMT A/H1N1, Week 4 ([2]; 5 mg weekly, N = 49): 198.73 | HI GMT ratio A/H1N1 (week 4 post vaccination/baseline) ([2]; 20 mg weekly, N = 49): 1.8 | HI GMT A/H1N1, Baseline ([2]; 20 mg weekly, N = 49): 90.1 | HI GMT A/H1N1, Week 4 ([2]; 20 mg weekly, N = 49): 129.7 | Percent of subjects with seroconversion to influenza H1N1 4 weeks after vaccination [2, 12]: 27% | Percent of subjects with seroconversion to influenza H1N1 4 weeks after vaccination [2, 13]: 27% | Percent of subjects with seroconversion to influenza H1N1 4 weeks after vaccination [2, 14]: 17% | Percent of subjects with seroconversion to influenza H1N1 4 weeks after vaccination [2, 15]: 42% | Percent of subjects with seroconversion to influenza H1N1 4 weeks after vaccination [2, 16]: 45% | Percent of subjects with seroconversion to influenza H1N1 4 weeks after vaccination [2, 17]: 36% | HI GMT ratio A/H3N2 (week 4 post vaccination/baseline) ([3]; 0.5 mg daily, N = 50): 2.1 | HI GMT A/H3N2, Baseline ([3]; 0.5 mg daily, N = 50): 106.8 | HI GMT A/H3N2, Week 4 ([3]; 0.5 mg daily, N = 50): 194.4 | HI GMT ratio A/H3N2 (week 4 post vaccination/baseline) ([3]; 5 mg weekly, N = 49): 2.0 | HI GMT A/H3N2, Baseline ([3]; 5 mg weekly, N = 49): 126.04 | HI GMT A/H3N2, Week 4 ([3]; 5 mg weekly, N = 49): 223.0 | HI GMT ratio A/H3N2 (week 4 post vaccination/baseline) ([3]; 20 mg weekly, N = 49): 2.1 | HI GMT A/H3N2, Baseline ([3]; 20 mg weekly, N = 49): 137.1 | HI GMT A/H3N2, Week 4 ([3]; 20 mg weekly, N = 49): 223.0 | Percent of subjects with seroconversion to influenza H3N2 4 weeks after vaccination [3, 12]: 27% | Percent of subjects with seroconversion to influenza H3N2 4 weeks after vaccination [3, 13]: 24% | Percent of subjects with seroconversion to influenza H3N2 4 weeks after vaccination [3, 14]: 25% | Percent of subjects with seroconversion to influenza H3N2 4 weeks after vaccination [3, 15]: 64% | Percent of subjects with seroconversion to influenza H3N2 4 weeks after vaccination [3, 16]: 53% | Percent of subjects with seroconversion to influenza H3N2 4 weeks after vaccination [3, 17]: 71% | Percentage of subjects who seroconvert to heterologous A/H1N1 strain A/NewJersey/8/76 4 weeks after seasonal influenza vaccination ([4]; 0.5 mg daily): 17% | Percentage of subjects who seroconvert to heterologous A/H1N1 strain A/NewJersey/8/76 4 weeks after seasonal influenza vaccination ([4]; 5 mg weekly): 16% | Percentage of subjects who seroconvert to heterologous A/H1N1 strain A/NewJersey/8/76 4 weeks after seasonal influenza vaccination ([4]; 20 mg weekly): 8% | Increase in the HI GMT ratio for the heterologous strain ([4]; RAD001 vs placebo cohorts): higher in the RAD001 as compared to placebo cohorts | Primary endpoint of the study (HI GMT ratio >=1.2-fold relative to placebo in at least 2 of 3 strains) [5]: met the GMT primary endpoint | RAD001-associated increase in influenza titers in subgroup analysis [5]: greater RAD001-associated increase in titers than did the ITT population | Decrease in PD-1 positive CD4 T cells compared to placebo cohort [6]: 30.2% and 32.7% | Decrease in PD-1 positive CD8 T cells compared to placebo cohort [6]: 37.4% and 41.4% | Percentage of CD4 PD-1 positive T cells [6]: decreased from baseline | Percentage of CD8 PD-1 positive cells [6]: decreased from baseline | Percentage of PD-1 negative CD4 T cells [6]: increased | Proliferation of the CAR T cells in vivo [7]: enhanced proliferation | Deaths during the study [8]: No deaths occurred | Incidence of treatment-related AE: Blood cholesterol increased [8]: 2 (3.8%) n (%) | Most common RAD001-related AE [8]: mouth ulcer | Tolerability [8]: well tolerated | Pneumococcal serotypes with increased antibody titers compared to placebo [9]: 6/7 | proliferation of CAR-expressing, transduced T cells [10]: enhanced | exercise and energy [11]: increases in exercise and energy
